Results taken from patent publication US10364245B2 (CHIESI FARMACEUTICI S.p.A., priority 2017, dated 2019).
Structures can show the parent of a compound that is named as a salt.

Biological target: T1, p38 alpha (Homo sapiens, UniProt Q16539)
T1 construct: purchased Invitrogen PV3304
Experiment: P38 alpha enzyme inhibition assay (Alphascreen kinase activity assay)
Type: biochemical
Conditions: 100 pM p38 alpha, 2 hours preincubation at 25° C., 250 μM ATP, ATF-2 fusion protein; read-out: p38α inhibition
Experimental: P38 Alpha Enzyme Inhibition Assay
The inhibitory activity of compounds was determined using an Alphascreen® (Perkin Elmer) based kinase activity assay. Kinase reactions consisted of 25 mM HEPES pH 7.5, 10 mM MgCl2, 100 μM Na3VO4, 2 mM DTT, 0.05 mg/ml Tween 20, 100 pM p38 alpha (Invitrogen, PV3304), 1% DMSO and 0.3 μg/ml ATF-2 fusion protein (New England Biolabs, 9224). Compounds were incubated under these conditions for 2 hours, at 25° C., prior to the initiation of the kinase activity by the addition of the 250 μM ATP. Reaction volumes were 20 μL. After 1 hr at 25° C. reactions were stopped by the adding 10 μL of 25 mM HEPES pH 7.5 containing 62.5 mM EDTA, 0.05% Triton X-100, 10% BSA and 0.83 ng/uL anti-phospho-ATF2 antibody (Abcam, ab28812). Detection was performed by measuring luminescence following the addition of Alphascreen Donor beads (Perkin Elmer 6765300) and Protein A Alphascreen Acceptor beads (Perkin Elmer 6760137), both at a final concentration of 20 ug/ml. IC50 values were determined from concentration-response curves.

T1 sequence (Q16539 whole entry): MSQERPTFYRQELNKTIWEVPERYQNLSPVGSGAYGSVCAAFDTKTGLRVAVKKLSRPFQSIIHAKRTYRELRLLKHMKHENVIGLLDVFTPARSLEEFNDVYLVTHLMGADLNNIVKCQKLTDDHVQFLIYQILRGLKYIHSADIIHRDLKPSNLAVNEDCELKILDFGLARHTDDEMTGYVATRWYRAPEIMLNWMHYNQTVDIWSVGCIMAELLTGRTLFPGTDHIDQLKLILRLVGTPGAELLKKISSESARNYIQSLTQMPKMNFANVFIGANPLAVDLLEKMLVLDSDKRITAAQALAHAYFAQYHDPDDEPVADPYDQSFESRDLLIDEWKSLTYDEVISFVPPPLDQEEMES

Compound: CN(C)[C@H]1CCCC[C@@H]1NC(=O)c1nc(NC(=O)N[C@H]2CC[C@@H](Oc3ccc4nnc(C(C)(C)C)n4c3)c3ccccc32)cc(C(C)(C)C)n1 [Example 165, 4-(tert-butyl)-6-(3-((1S,4R)-4-((3-(tert-butyl)-[1,2,4]triazolo[4,3-a]pyridin-6-yl)oxy)-1,2,3,4-tetrahydronaphthalen-1-yl)ureido)-N-((1S,2S)-2-(dimethylamino)-cyclohexyl)pyrimidine-2-carboxamide]
- IC50: 1 to 10 nM

Compound: CC(C)c1nc(NC(=O)N[C@H]2CC[C@@H](Oc3ccc4nnc([C@]5(C)CCCN5C)n4c3)c3ccccc32)cc(C(C)(C)C)n1 [Example 42, 1-(6-(tert-Butyl)-2-isopropylpyrimidin-4-yl)-3-((1S,4R)-4-((3-((S)-1,2-dimethylpyrrolidin-2-yl)-[1,2,4]triazolo[4,3-a]pyridin-6-yl)oxy)-1,2,3,4-tetrahydronaphthalen-1-yl)urea]
- IC50: 1 to 10 nM

Compound: CC(C)c1nnc2ccc(O[C@@H]3CC[C@H](NC(=O)Nc4cc(C(C)(C)C)nc(C(=O)NCCN(C)C)n4)c4ccccc43)cn12 [Example 17, 4-(tert-Butyl)-N-(2-(dimethylamino)ethyl)-6-(3-((1S,4R)-4-((3-isopropyl-[1,2,4]triazolo[4,3-a]pyridin-6-yl)oxy)-1,2,3,4-tetrahydronaphthalen-1-yl)ureido)pyrimidine-2-carboxamide]
- IC50: 1 to 10 nM

Compound: COC(C)(C)c1nnc2ccc(O[C@@H]3CC[C@H](NC(=O)Nc4cc(C(C)(C)C)nc(COCCN5CCOCC5)n4)c4ccccc43)cn12 [Example 144, 1-(6-(tert-butyl)-2-((2-morpholinoethoxy)-methyl)pyrimidin-4-yl)-3-((1S,4R)-4-((3-(2-methoxypropan-2-yl)-[1,2,4]triazolo[4,3-a]pyridin-6-yl)oxy)-1,2,3,4-tetrahydronaphthalen-1-yl)urea]
- IC50: 1 to 10 nM

Compound: CCC(CC)(CNC(=O)c1nc(NC(=O)N[C@H]2CC[C@@H](Oc3ccc4nnc(C(C)(C)COC)n4c3)c3ccccc32)cc(C(C)(C)C)n1)N(C)C [Example 147, 4-(tert-butyl)-N-(2-(dimethylamino)-2-ethylbutyl)-6-(3-((1S,4R)-4-((3-(1-methoxy-2-methylpropan-2-yl)-[1,2,4]triazolo[4,3-a]pyridin-6-yl)oxy)-1,2,3,4-tetrahydronaphthalen-1-yl)ureido)pyrimidine-2-carboxamide]
- IC50: 1 to 10 nM

Compound: COCCN(C)C(C)(C)CNC(=O)c1nc(NC(=O)N[C@H]2CC[C@@H](Oc3ccc4nnc(C(C)(C)OC)n4c3)c3ccccc32)cc(C(C)(C)C)n1 [Example 179, 4-(tert-butyl)-N-(2-((2-methoxyethyl)(methyl)amino)-2-methylmpropyl)-6-(3-((1S,4R)-4-((3-(2-methoxypropan-2-yl)-[1,2,4]triazolo[4,3-a]pyridin-6-yl)oxy)-1,2,3,4-tetrahydronaphthalen-1-yl)ureido)pyrimidine-2-carboxamide]
- IC50: 1 to 10 nM

Compound: CCOC(C)(C)c1nnc2ccc(O[C@@H]3CC[C@H](NC(=O)Nc4cc(C(C)(C)C)nc(C(=O)NCCN(C)C)n4)c4ccccc43)cn12 [Example 180, 4-(tert-Butyl)-N-(2-(dimethylamino)ethyl)-6-(3-((1S,4R)-4-((3-(2-ethoxypropan-2-yl)-[1,2,4]triazolo[4,3-a]pyridin-6-yl)oxy)-1,2,3,4-tetrahydronaphthalen-1-yl)ureido)pyrimidine-2-carboxamide formate salt]
- IC50: 1 to 10 nM

Compound: CCc1nc(NC(=O)N[C@H]2CC[C@@H](Oc3ccc4nnc([C@]5(C)CCCN5C)n4c3)c3ccccc32)cc(C(C)(C)C)n1 [Example 41, 1-(6-(tert-Butyl)-2-ethylpyrimidin-4-yl)-3-((1S,4R)-4-((3-((S)-1,2-dimethylpyrrolidin-2-yl)-[1,2,4]triazolo[4,3-a]pyridin-6-yl)oxy)-1,2,3,4-tetrahydronaphthalen-1-yl)urea]
- IC50: 1 to 10 nM

Compound: COC1CCN(CCNC(=O)c2cc(NC(=O)N[C@H]3CC[C@@H](Oc4ccc5nnc(C(C)(C)C)n5c4)c4ccccc43)cc(C(C)(C)C)n2)CC1 [Example 203, 6-(tert-butyl)-4-(3-((1S,4R)-4-((3-(tert-butyl)-[1,2,4]triazolo[4,3-a]pyridin-6-yl)oxy)-1,2,3,4-tetrahydronaphthalen-1-yl)ureido)-N-(2-(4-methoxypiperidin-1-yl)ethyl)picolinamide]
- IC50: 1 to 10 nM

Compound: CC(C)Cc1nnc2ccc(O[C@@H]3CC[C@H](NC(=O)Nc4cc(C(C)(C)C)nc(C(=O)NCCN5CCOCC5)n4)c4ccccc43)cn12 [Example 90, 4-(tert-butyl)-6-(3-((1S,4R)-4-((3-isobutyl-[1,2,4]triazolo[4,3-a]pyridin-6-yl)oxy)-1,2,3,4-tetrahydronaphthalen-1-yl)ureido)-N-(2-morpholinoethyl)-pyrimidine-2-carboxamide]
- IC50: 1 to 10 nM

Compound: CO[C@@H](C)c1nnc2ccc(O[C@@H]3CC[C@H](NC(=O)Nc4cc(C(C)(C)C)nc(C(=O)NCCN5CCOCC5)n4)c4ccccc43)cn12 [Example 101, 4-(tert-butyl)-6-(3-((1S,4R)-4-((3-((S)-1-methoxyethyl)-[1,2,4]triazolo[4,3-a]pyridin-6-yl)oxy)-1,2,3,4-tetrahydronaphthalen-1-yl)ureido)-N-(2-morpholinoethyl)-pyrimidine-2-carboxamide]
- IC50: 1 to 10 nM

Compound: CC(C)(C)c1cc(NC(=O)N[C@H]2CC[C@@H](Oc3ccc4nnc(C(C)(C)C)n4c3)c3ccccc32)nc(COCCN2CCOCC2)n1 [Example 63, 1-(6-(tert-Butyl)-2-((2-morpholinoethoxy)methyl)pyrimidin-4-yl)-3-((1S,4R)-4-((3-(tert-butyl)-[1,2,4]triazolo[4,3-a]pyridin-6-yl)oxy)-1,2,3,4-tetrahydronaphthalen-1-yl)urea]
- IC50: 1 to 10 nM

Compound: CC(C)(C)c1cc(NC(=O)N[C@H]2CC[C@@H](Oc3ccc4nnc(C5(C)COC5)n4c3)c3ccccc32)nc(C(=O)NCCN2CCOCC2)n1 [Example 98, 4-(tert-butyl)-6-(3-((1S,4R)-4-((3-(3-methyloxetan-3-yl)-[1,2,4]triazolo[4,3-a]pyridin-6-yl)oxy)-1,2,3,4-tetrahydronaphthalen-1-yl)ureido)-N-(2-morpholinoethyl)-pyrimidine-2-carboxamide]
- IC50: 1 to 10 nM

Compound: COCCN(C)C(C)(C)CNC(=O)c1nc(NC(=O)N[C@H]2CC[C@@H](Oc3ccc4nnc(C(C)(C)C)n4c3)c3ccccc32)cc(C(C)(C)C)n1 [Example 177, 4-(tert-butyl)-6-(3-((1S,4R)-4-((3-(tert-butyl)-[1,2,4]triazolo[4,3-a]pyridin-6-yl)oxy)-1,2,3,4-tetrahydronaphthalen-1-yl)ureido)-N-(2-((2-methoxyethyl)(methyl)-amino)-2-methylpropyl)pyrimidine-2-carboxamide]
- IC50: 1 to 10 nM

Compound: COC(C)(C)c1nnc2ccc(O[C@@H]3CC[C@H](NC(=O)Nc4cc(C(C)(C)C)nc(C(=O)NCC(C)(C)N5CCN(C)CC5)n4)c4ccccc43)cn12 [Example 157, 4-(tert-butyl)-6-(3-((1S,4R)-4-((3-(2-methoxypropan-2-yl)-[1,2,4]triazolo[4,3-a]pyridin-6-yl)oxy)-1,2,3,4-tetrahydronaphthalen-1-yl)ureido)-N-(2-methyl-2-(4-methylpiperazin-1-yl)propyl)pyrimidine-2-carboxamide]
- IC50: 1 to 10 nM

Compound: CN(C)C1(CNC(=O)c2nc(NC(=O)N[C@H]3CC[C@@H](Oc4ccc5nnc(C(C)(C)C)n5c4)c4ccccc43)cc(C(C)(C)C)n2)CCC1 [Example 162, 4-(tert-butyl)-6-(3-((1S,4R)-4-((3-(tert-butyl)-[1,2,4]triazolo[4,3-a]pyridin-6-yl)oxy)-1,2,3,4-tetrahydronaphthalen-1-yl)ureido)-N-((1-(dimethylamino)-cyclobutyl)methyl)pyrimidine-2-carboxamide]
- IC50: 1 to 10 nM

Compound: CN1CCCN(C(=O)c2nc(NC(=O)N[C@H]3CC[C@@H](Oc4ccc5nnc(C(C)(C)C)n5c4)c4ccccc43)cc(C(C)(C)C)n2)CC1 [Example 133, 1-(6-(tert-butyl)-2-(4-methyl-1,4-diazepane-1-carbonyl)pyrimidin-4-yl)-3-((1S,4R)-4-((3-(tert-butyl)-[1,2,4]triazolo[4,3-a]pyridin-6-yl)oxy)-1,2,3,4-tetrahydronaphthalen-1-yl)urea]
- IC50: 1 to 10 nM

Compound: CN(C)CCNC(=O)c1nc(NC(=O)N[C@H]2CC[C@@H](Oc3ccc4nnc(C(C)(C)N5CCN(C)CC5)n4c3)c3ccccc32)cc(C(C)(C)C)n1 [Example 22, 4-(tert-Butyl)-N-(2-(dimethylamino)ethyl)-6-(3-((1S,4R)-4-((3-(2-(4-methylpiperazin-1-yl)propan-2-yl)-[1,2,4]triazolo[4,3-a]pyridin-6-yl)oxy)-1,2,3,4-tetrahydronaphthalen-1-yl)ureido)pyrimidine-2-carboxamide]
- IC50: 1 to 10 nM

Compound: CCN(C)C(C)(C)CNC(=O)c1nc(NC(=O)N[C@H]2CC[C@@H](Oc3ccc4nnc(C(C)(C)OC)n4c3)c3ccccc32)cc(C(C)(C)C)n1 [Example 156, 4-(tert-butyl)-N-(2-(ethyl(methyl)amino)-2-methylpropyl)-6-(3-((1S,4R)-4-((3-(2-methoxypropan-2-yl)-[1,2,4]triazolo[4,3-a]pyridin-6-yl)oxy)-1,2,3,4-tetrahydronaphthalen-1-yl)ureido)pyrimidine-2-carboxamide]
- IC50: 1 to 10 nM
